Literature values as cited in patent US10449129B2, “Encapsulates of salicylic acid and polysalicylic acid derivatives” (Biocogent, LLC, priority 2015, dated 2019).

Conditions: room temperature

O=C(O)c1ccccc1O [SA, salicylic acid]
limit of solubility in water: approximately 0.2%
